Data: US20240425464A1, “Substituted Monohydrazides as Potent Antifungal Agents” (University of Kentucky Research Foundation, priority 2023, published 2024)
In brackets after ≈: the same amount, converted by molar mass. Like-named read-outs stand apart in the source and are kept apart here.

Columns and labels:
Test in all cases: MIC determination by in vitro antifungal assay
Assay type in all cases: cell-based
[1] = tested on: Aspergillus flavus ATCC MYA-3631 (O); settings: strain O = A. flavus ATCC MYA-3631
Protocol: (§1) 10 mg/mL stock solutions of compounds 1a-9j were prepared in dimethyl sulfoxide (DMSO) and were stored at −20° C. in the dark. The antifungal agent amphotericin B (AmB) was purchased from VWR (Radnor PA, USA). AmB was dissolved in DMSO at a final concentration of 5 mg/mL and was stored at −20° C., protected from light. Candida albicans American Type Culture Collection (ATCC) 10231 (strain A), C. albicans ATCC 64124 (B), and C. albicans ATCC MYA-2876 (C) were obtained from Utah State University. C. albicans ATCC 90819 (D), C. albicans ATCC MYA-2310 (E), C. albicans ATCC MYA-1237 (F), C. albicans ATCC MYA-1003 (G), Candida glabrata ATCC 2001 (H), Candida krusei ATCC 6258 (I), Candida parapsilosis ATCC 22019 (J), Cryptococcus neoformans ATCC MYA-895 (M), Aspergillus terreus ATCC MYA-3633 (N), and Aspergillus flavus ATCC MYA-3631 (0) were obtained from the American Type Culture Collection (ATCC; Manassas, VA, USA). Aspergillus nidulans ATCC 38163 (P) was obtained from University of Kentucky. Clinically derived Aspergillus fumigatus NRRL 163 (Q), A. fumigatus NRRL 5109 (R), and A. fumigatus NRRL 6113 (S) were obtained from Northern Regional Research Laboratory (NRRL). Candida auris 384 (K), C. auris 390 (L), and fungal strains 381-400 (including 10 C. auris (AR Bank #381-390), 3 Candida duobushaemulonii (AR Bank #391, AR Bank #392, and AR Bank #394), 2 Candida haemulonii (AR Bank #393 and AR Bank #395), 1 Kodameae ohmeri (AR Bank #396), 1 C. krusei (AR Bank #397), 1 Candida lusitaniae (AR Bank #398), and 2 Saccharomyces cerevisiae strains (AR Bank #399 and AR Bank #400)) were part of a larger fungal library from the AR Bank maintained by the Centers for Disease Control and Prevention (CDC; Atlanta, GA, USA). Filamentous fungi and yeasts were cultivated at 35° C. in RPMI 1640 medium (with L-glutamine, without sodium bicarbonate, Sigma-Aldrich, St. Louis, MO) buffered to a pH of 7.0 with 0.165 M morpholinepropanesulfonic acid (MOPS) buffer (Sigma-Aldrich). For cytotoxicity assays, HepG2 and the mouse macrophage cell line J774A.1 were obtained from University of Kentucky. The human embryonic kidney cell line, HEK-293, was bought from the ATCC. Mammalian cells were grown in Dulbecco's Modified Eagle's Medium (DMEM) (from VWR) with 10% fetal bovine serum (FBS) (from VWR) and 1% Pen/Strep (from ATCC). Cell lines were cultured at 37° C. with 5% CO2 and passaged by trypsinization with 0.05% trypsin: 0.53 mM EDTA (from Sigma-Aldrich).
(§2) The MIC values of compounds 1a-9j against yeast cells (strains A-P and 381-400) were determined in 96-well plates as described in the CLSI documents M27-A3 and M38-A2 with minor modifications.^2 A single colony of freshly prepared yeast cells was used to inoculate 5 mL of yeast extract peptone dextrose (YPD) broth prior to incubation overnight with shaking at 200 rpm at 35° C. From the actively growing yeast culture, 100 µL were then transferred to 900 μL of RPMI 1640 medium and re-adjusted to achieve OD600 of 0.12 (˜1×10^6 CFU/mL). The cell suspension was further diluted to achieve 1:100 in RPMI 1640 medium. 100 μL of cells were added to the wells of a 96-well microtiter plates that contained 100 µL of the compound solution to obtain concentrations of 0.06-31.3 μg/mL of compounds 1a-9j or AmB prior to incubation for 48 h at 35° C.
(§3) Finally, the activity of these monohydrazides was explored against […] non-Candida strains: Cryptococcus neoformans ATCC MYA-895 (M), Aspergillus terreus ATCC MYA-3633 (N), Aspergillus flavus ATCC MYA-3631 (O), Aspergillus nidulans ATCC 38163 (P), Aspergillus fumigatus NRRL 163 (Q), A. fumigatus NRRL 5109 (R), and A. fumigatus NRRL 6113 (S) (Tables 1A and 1B). The double dilution method was used with concentrations ranging from 0.06 to 31.3 j·tg mL^−1 for monohydrazides 1a-9j, and the commercially available positive antifungal control amphotericin B (AmB).

[2] = tested on: Cryptococcus neoformans ATCC MYA-895 (M)
Protocol: as §1, §2, §3

[3] = tested on: Aspergillus terreus ATCC MYA-3633 (N); settings: strain N = A. terreus ATCC MYA-3633
Protocol: as §1, §2, §3

[4] = tested on: Aspergillus nidulans ATCC 38163 (P)
Protocol: as §1, §2, §3

[5] = strain M = C. neoformans ATCC MYA-895
[6] = strain P = A. nidulans ATCC 38163
[7] = Aspergillus flavus, read-out: MIC
[8] = Cryptococcus neoformans, strain M = C. neoformans ATCC MYA-895, read-out: MIC
[9] = Aspergillus terreus, read-out: MIC
[10] = Aspergillus nidulans, ATCC38163, strain P = A. nidulans ATCC 38163, read-out: MIC

SMILES | MIC [1] | MIC [2, 5] | MIC [3] | MIC [4, 6] | MIC [1, 7] | MIC [2, 8] | MIC [3, 9] | MIC [4, 10] | MIC ([2]; against strain M)
C[C@@H]1[C@H](O)[C@@H](C)/C=C/C=C/C=C/C=C/C=C/C=C/C=C/[C@H](O[C@@H]2O[C@H](C)[C@@H](O)[C@H](N)[C@@H]2O)C[C@@H]2O[C@](O)(C[C@@H](O)C[C@@H](O)[C@H](O)CC[C@@H](O)C[C@@H](O)CC(=O)O[C@H]1C)C[C@H](O)[C@H]2C(=O)O [AmB, amphotericin B, reference compound] | 31.3 μg/mL^−1 | 7.8 μg/mL^−1 | 3.9 μg/mL^−1 | 15.6 μg/mL^−1 | – | – | – | – | –
O=C(NNc1ccc(F)cc1)c1ccc(F)cc1F [Compound 1d] | – | – | – | – | > 31.3 µg/mL | 0.49 µg/mL (≈ 1.84 µM) | 3.9 µg/mL (≈ 14.6 µM) | 3.9 µg/mL (≈ 14.6 µM) | –
O=C(NNc1ccc(F)cc1)c1cnccn1 [Compound 9d] | – | – | – | – | 15.6 µg/mL (≈ 67.2 µM) | 0.24 µg/mL (≈ 1.03 µM) | 1.95 µg/mL (≈ 8.4 µM) | 0.49 µg/mL (≈ 2.11 µM) | –
COc1cccc(NNC(=O)c2ccc(F)cn2)c1 [Compound 3c] | >31.3 μg/mL^−1 | 0.24 μg/mL^−1 | 3.9 μg/mL^−1 | 1.95 μg/mL^−1 | – | – | – | – | –
COc1ccc(NNC(=O)c2nc(F)ccc2F)cc1 [Compound 8f] | – | – | – | – | > 31.3 µg/mL | 0.98 µg/mL (≈ 3.51 µM) | 31.3 µg/mL (≈ 112 µM) | 1.95 µg/mL (≈ 6.98 µM) | –
O=C(NNc1cccc(F)c1)c1ccccn1 [Compound 2a] | 7.8 μg/mL^−1 | 0.12 μg/mL^−1 | 1.95 μg/mL^−1 | 3.9 μg/mL^−1 | – | – | – | – | –
COc1cccc(NNC(=O)c2ccccn2)c1 [Compound 2c] | >31.3 μg/mL^−1 | 0.24 μg/mL^−1 | 3.9 μg/mL^−1 | 1.95 μg/mL^−1 | – | – | – | – | –
O=C(NNc1ccc(F)cc1F)c1ncc(F)cc1F [Compound 7g] | – | – | – | – | > 31.3 µg/mL | 0.98 µg/mL (≈ 3.44 µM) | 7.8 µg/mL (≈ 27.3 µM) | 0.98 µg/mL (≈ 3.44 µM) | –
O=C(NNc1cc(Cl)cc(Cl)c1)c1ccc(F)cc1F [Compound 1j] | – | – | – | – | > 31.3 µg/mL | 7.8 µg/mL (≈ 24.6 µM) | > 31.3 µg/mL | 15.6 µg/mL (≈ 49.2 µM) | –
O=C(NNc1cc(F)cc(F)c1)c1ccccn1 [Compound 2i] | – | – | – | – | 1.95 µg/mL (≈ 7.82 µM) | 0.24 µg/mL (≈ 0.963 µM) | 0.98 µg/mL (≈ 3.93 µM) | 0.49 µg/mL (≈ 1.97 µM) | –
O=C(NNc1cc(F)cc(F)c1)c1ccc(F)cc1F [Compound 1i] | – | – | – | – | > 31.3 µg/mL | 0.49 µg/mL (≈ 1.72 µM) | > 31.3 µg/mL | 7.8 µg/mL (≈ 27.4 µM) | 0.49 j·tg mL^−1
O=C(NNc1cccc(F)c1)c1ccc(F)cc1F [Compound 1a] | >31.3 μg/mL^−1 | 1.95 μg/mL^−1 | 3.9 μg/mL^−1 | 3.9 μg/mL^−1 | – | – | – | – | –
COc1cccc(NNC(=O)c2ncc(F)cc2F)c1 [Compound 7c] | – | – | – | – | > 31.3 µg/mL | 15.6 µg/mL (≈ 55.9 µM) | 31.3 µg/mL (≈ 112 µM) | 15.6 µg/mL (≈ 55.9 µM) | –
O=C(NNc1ccc(Cl)cc1)c1cnccn1 [Compound 9e] | >31.3 μg/mL^−1 | 0.98 μg/mL^−1 | 7.8 μg/mL^−1 | 1.95 μg/mL^−1 | – | – | – | – | –
O=C(NNc1ccc(Cl)cc1)c1cccc(F)n1 [Compound 5e] | >31.3 μg/mL^−1 | 1.95 μg/mL^−1 | 31.3 μg/mL^−1 | 7.8 μg/mL^−1 | – | – | – | – | –
O=C(NNc1ccc(F)cc1)c1ncc(F)cc1F [Compound 7d] | – | – | – | – | 7.8 µg/mL (≈ 29.2 µM) | 0.49 µg/mL (≈ 1.83 µM) | 3.9 µg/mL (≈ 14.6 µM) | 0.49 µg/mL (≈ 1.83 µM) | –
O=C(NNc1cccc(F)c1)c1ccc(F)cn1 [Compound 3a] | 7.8 μg/mL^−1 | ≤0.06 μg/mL^−1 | 1.95 μg/mL^−1 | 0.98 μg/mL^−1 | – | – | – | – | –
